Test results taken from ChEMBL document CHEMBL1201861, “Genomics of Drug Sensitity in Cancer screening data, Wellcome Trust Sanger Institute”.

What was measured:
Experiment in all cases: cells
Type in all cases: functional, cell-based
Conditions in all cases: Homo sapiens
[1] = test system: NCI-H1694;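 also: cell viability assay measuring inhibition of growth in human NCI-H1694 cells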
Description: SANGER: Inhibition of human NCI-H1694 cell growth in a cell viability assay.

[2] = test system: LC4-1;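 also: growth inhibition of LC4-1 cells, read out with a cell viability assay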
Description: SANGER: Inhibition of human LC4-1 cell growth in a cell viability assay.

[3] = test system: LOUCY;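 also: growth inhibition of human LOUCY cells, read out with a cell viability assay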
Description: SANGER: Inhibition of human LOUCY cell growth in a cell viability assay.

[4] = test system: EVSA-T;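 also: growth inhibition of EVSA-T cells, read out with a cell viability assay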
Description: SANGER: Inhibition of human EVSA-T cell growth in a cell viability assay.

[5] = test system: KMS-12-PE;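 also: growth inhibition of human KMS-12-PE cells, measured with a cell viability assay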
Description: SANGER: Inhibition of human KMS-12-PE cell growth in a cell viability assay.

[6] = test system: Kasumi 1;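 also: growth inhibition of human Kasumi-1 cells, read out by a cell viability assay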
Description: SANGER: Inhibition of human KASUMI-1 cell growth in a cell viability assay.

[7] = test system: LP-1;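 also: growth inhibition of human LP-1 cells, with the read-out taken from a cell viability assay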
Description: SANGER: Inhibition of human LP-1 cell growth in a cell viability assay.

[8] = test system: HCC1599;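 also: growth inhibition of HCC1599 cells, read out in a cell viability assay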
Description: SANGER: Inhibition of human HCC1599 cell growth in a cell viability assay.

[9] = test system: Raji;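 also: cell viability assay measuring inhibition of Raji cell growth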
Description: SANGER: Inhibition of human Raji cell growth in a cell viability assay.

[10] = test system: RL
Description: SANGER: Inhibition of human RL cell growth in a cell viability assay.

[11] = test system: SR
Description: SANGER: Inhibition of human SR cell growth in a cell viability assay.

[12] = test system: SNU-C1;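 also: growth inhibition of SNU-C1 human cells, read out by a cell viability assay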
Description: SANGER: Inhibition of human SNU-C1 cell growth in a cell viability assay.

[13] = test system: SK-MM-2;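 also: growth inhibition of human SK-MM-2 cells, read out with a cell viability assay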
Description: SANGER: Inhibition of human SK-MM-2 cell growth in a cell viability assay.

[14] = test system: NCI-H889;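 also: cell growth inhibition of the cell line, read out with a viability assay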
Description: SANGER: Inhibition of human NCI-H889 cell growth in a cell viability assay.

[15] = test system: EHEB;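 also: growth inhibition of human EHEB cells, read out with a cell viability assay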
Description: SANGER: Inhibition of human EHEB cell growth in a cell viability assay.

[16] = test system: CMK;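 also: growth inhibition of CMK cells, read out as cell viability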
Description: SANGER: Inhibition of human CMK cell growth in a cell viability assay.

[17] = test system: NB14;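 also: growth inhibition of NB14 cells measured with a cell viability assay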
Description: SANGER: Inhibition of human NB14 cell growth in a cell viability assay.

[18] = test system: NCI-H345;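 also: growth inhibition of NCI-H345 cells measured with a cell viability assay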
Description: SANGER: Inhibition of human NCI-H345 cell growth in a cell viability assay.

[19] = test system: SIMA;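 also: growth inhibition of SIMA cells, measured with a cell viability readout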
Description: SANGER: Inhibition of human SIMA cell growth in a cell viability assay.

Measured: IC50

CCNc1cc(N[C@H]2CC[C@@H](O)CC2)nc(Nc2ccc3c(ccn3Cc3ccccc3)c2)n1
> 5.12 µM: all assays above

COc1cc(C)c(Sc2cnc(NC(=O)c3ccc(CNC(C)C(C)(C)C)cc3)s2)cc1C(=O)N1CCN(C(C)=O)CC1 (configuration not stated)
> 10.2 µM: all assays above

Cc1n[nH]c2ccc(-c3cncc(OC[C@@H](N)Cc4c[nH]c5ccccc45)c3)cc12 [A-443654]
0.509 µM: [1]
0.623 µM: [13]
0.217 µM: [2]
0.184 µM: [11]
0.38 µM: [9]
0.275 µM: [16]
0.162 µM: [8]
0.22 µM: [4]
0.75 µM: [18]
0.402 µM: [15]
0.158 µM: [3]
> 1.02 µM: all other assays above
